From patent US20050048508A1, “Trehalose receptor and method for detecting trehalose with the same” (KABUSHIKI KAISHA HAYASHIBARA SEIBUTSU KAGAKU KENKYUJO, priority 2002, published 2005)

Test system: G protein α-subunits (α15 and α16/Z chimeric protein), no sweet taste receptor
Assay: Intracellular calcium ion assay, 293 cells expressing G protein α-subunits without sweet taste receptor
Format: cell-based, Mouse, Human
Details: 293 cells: G protein α-subunits only, no T1R1/T1R2/T1R3; 0.67 ml of 1 M saccharide solution added to 2 ml cell suspension
Experimental: The coexpression vector for the G protein α-subunit α15 and the G protein α16/Z chimeric protein (hereinafter designated as “G protein α-subunits”) obtained in Example 1-3 was gene transferred to 293 cells, RCB 1637, a human embryonic kidney cell line, available from the Riken Bioresource Center, Ibaraki, Japan, by conventional lipofection. The gene transferred cells were suspended in Dulbecco's Modified Eagle's Medium (D-MEM) supplemented with 1 mg/L of “PUROMYCIN”, a trade mane of puromycin commercialized by Edge Biosystems, MD, USA, and 10% (v/v) of fetal calf serum to give a cell density of 2×10^6 cells/ml and cultured in a plastic petri dish for cell culture. […]
The captioned reactivity test was conducted according to a conventional intracellular calcium ion assay: 293 Cells prepared in Example 3, capable of coexpressing the G protein α-subunits and the sweet taste receptor(s), were cultured in a plastic petri dish for cell culture until reaching its confluent phase. […] Two milliliters of the resultant cell suspension was injected into a glass cuvette, commercialized by Hitachi, Ltd., Tokyo, Japan, and analyzed on “HITACHI 650-40”, a fluorescence spectrophotometer commercialized by Hitachi, Ltd., Tokyo, Japan. […]

Compound	Influx of calcium ion
OC[C@H]1O[C@H](O[C@H]2O[C@H](CO)[C@@H](O)[C@H](O)[C@H]2O)[C@H](O)[C@@H](O)[C@@H]1O [Trehalose]	Negative
OC[C@H]1O[C@@](CO)(O[C@H]2O[C@H](CO)[C@@H](O)[C@H](O)[C@H]2O)[C@@H](O)[C@@H]1O [Sucrose, reference compound]	Negative
